Measurements taken from PubChem BioAssay (NCI).
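Briefly, cells in 96-well plates were exposed to five compound concentrations for 48 h, and endpoints were estimated by linear interpolation. GI50 marks 50% less growth. The concentration for full growth arrest is given as TGI.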

Legend:
Assay in all cases: inhibition of tumour cell growth, NCI panel, 48 h
NCI-H23 lung = system: NCI-H23 lung
NCI-H460 lung = system: NCI-H460 lung
NCI-H522 lung = system: NCI-H522 lung
NCI/ADR-RES ovarian = system: NCI/ADR-RES ovarian
OVCAR-3 ovarian = system: OVCAR-3 ovarian
OVCAR-4 ovarian = system: OVCAR-4 ovarian
OVCAR-5 ovarian = system: OVCAR-5 ovarian
OVCAR-8 ovarian = system: OVCAR-8 ovarian
PC-3 prostate = system: PC-3 prostate
RPMI-8226 leukemia = system: RPMI-8226 leukemia
RXF 393 renal = system: RXF 393 renal
SF-268 CNS = system: SF-268 CNS
SF-295 CNS = system: SF-295 CNS
SF-539 CNS = system: SF-539 CNS
SK-MEL-2 melanoma = system: SK-MEL-2 melanoma
SK-MEL-28 melanoma = system: SK-MEL-28 melanoma
SK-MEL-5 melanoma = system: SK-MEL-5 melanoma
SK-OV-3 ovarian = system: SK-OV-3 ovarian
SN12C renal = system: SN12C renal
SNB-19 CNS = system: SNB-19 CNS
SNB-75 CNS = system: SNB-75 CNS
SR leukemia = system: SR leukemia
SW-620 colon = system: SW-620 colon
T-47D breast = system: T-47D breast
TK-10 renal = system: TK-10 renal
U251 CNS = system: U251 CNS
UACC-257 melanoma = system: UACC-257 melanoma
UACC-62 melanoma = system: UACC-62 melanoma
UO-31 renal = system: UO-31 renal

Compound: C=CCNCCN1C(=O)c2ccc3c4c(ccc(c24)C1=O)C(=O)N(CCNCC=C)C3=O
- GI50 (NCI-H23 lung): 938 nM
- TGI (NCI-H23 lung): 2100 nM
- GI50 (NCI-H460 lung): 258 nM
- TGI (NCI-H460 lung): 1730 nM
- GI50 (NCI-H522 lung): 616 nM
- TGI (NCI-H522 lung): 1540 nM
- GI50 (NCI/ADR-RES ovarian): 995 nM
- TGI (NCI/ADR-RES ovarian): 5290 nM
- GI50 (OVCAR-3 ovarian): 990 nM
- TGI (OVCAR-3 ovarian): 3270 nM
- GI50 (OVCAR-4 ovarian): 315 nM
- TGI (OVCAR-4 ovarian): 1000 nM
- GI50 (OVCAR-5 ovarian): 1040 nM
- TGI (OVCAR-5 ovarian): 3090 nM
- GI50 (OVCAR-8 ovarian): 421 nM
- TGI (OVCAR-8 ovarian): 4000 nM
- GI50 (PC-3 prostate): 1340 nM
- TGI (PC-3 prostate): 16600 nM
- GI50 (RPMI-8226 leukemia): 953 nM
- TGI (RPMI-8226 leukemia): 4230 nM
- GI50 (RXF 393 renal): 696 nM
- TGI (RXF 393 renal): 1480 nM
- GI50 (SF-268 CNS): 753 nM
- TGI (SF-268 CNS): 3540 nM
- GI50 (SF-295 CNS): 397 nM
- TGI (SF-295 CNS): 1280 nM
- GI50 (SF-539 CNS): 847 nM
- TGI (SF-539 CNS): 1960 nM
- GI50 (SK-MEL-2 melanoma): 891 nM
- TGI (SK-MEL-2 melanoma): 1740 nM
- GI50 (SK-MEL-28 melanoma): 1180 nM
- TGI (SK-MEL-28 melanoma): 2680 nM
- GI50 (SK-MEL-5 melanoma): 584 nM
- TGI (SK-MEL-5 melanoma): 1200 nM
- GI50 (SK-OV-3 ovarian): 1050 nM
- TGI (SK-OV-3 ovarian): 2800 nM
- GI50 (SN12C renal): 489 nM
- TGI (SN12C renal): 1260 nM
- GI50 (SNB-19 CNS): 650 nM
- TGI (SNB-19 CNS): 1350 nM
- GI50 (SNB-75 CNS): 874 nM
- TGI (SNB-75 CNS): 1670 nM
- GI50 (SR leukemia): 811 nM
- TGI (SR leukemia): 2920 nM
- GI50 (SW-620 colon): 402 nM
- TGI (SW-620 colon): 1630 nM
- GI50 (T-47D breast): 1200 nM
- TGI (T-47D breast): 2650 nM
- GI50 (TK-10 renal): 1110 nM
- TGI (TK-10 renal): 3430 nM
- GI50 (U251 CNS): 526 nM
- TGI (U251 CNS): 1260 nM
- GI50 (UACC-257 melanoma): 786 nM
- TGI (UACC-257 melanoma): 1490 nM
- GI50 (UACC-62 melanoma): 895 nM
- TGI (UACC-62 melanoma): 1680 nM
- GI50 (UO-31 renal): 716 nM
- TGI (UO-31 renal): 1690 nM
